Data from patent US20250151740A1, “COMPOSITION FOR PREVENTING FUNGAL SPOILAGE IN POST-HARVEST FRUITS, VEGETABLES AND FLOWERS, METHOD AND USE THEREOF” (BIOBAB R&D, S.L., priority 2022, published 2025).
Entries after “also recorded” stand apart in the source; their conditions may differ.

Tests used:
Rhizopus sp. = assay: Vapor-agar contact method (modified, three-compartment petri dish); assay type: cell-based; conditions: 50 μL
Experimental: (§1) Inhibitory effects on the spore germination of other filamentous fungi, specifically Phytophtera nicotiana, Taphrina deformans, Colletotrichum and Rhizopus sp., were examined by the vapor-agar contact method described in example 1 with a slight modification as follows. Fungi were cultured on potato dextrose agar (PDA) medium at 27° C. for a week. It was used petri dish with three compartment, one compartment was filled out with PDA and another two was kept empty,
(§2) Fungal spores were then inoculated in the center of the compartment with PDA (40 mm diameter) and a small piece of cellulose with 50 μL of β-cyclocitral (β-CC) (composition of the present invention) was placed in one of the empty compartments. The plates were incubated at 27° C. for 3-5 days and the growth area of the mycelium and % of inhibition was measured.

Taphrina deformans = assay: as above; assay type: cell-based; conditions: 50 μL, 27° C., 3-5 days
Experimental: as §1, §2

Colletotrichum = assay: as above; assay type: cell-based; conditions: 50 μL, 27° C., 3-5 days
Experimental: as §1, §2

Phytophtera nicotiana = assay: as above; assay type: cell-based; conditions: 50 μL; stated in text for all fungi of the example
Experimental: as §1, §2

roses = assay: In vivo test on roses with controlled release diffuser; conditions: diffuser with 50 μL, 20° C., darkness, approx. 7 days, versus control
Experimental: Roses were brought directly from local market and sent to laboratory within 12 hours. The roses were divided into two equal groups and each group of roses was placed in a jar filled with tap water.
(§3) One group of roses were not exposed to any product (control) and another group of roses were exposed to a controlled release diffuser that contains the composition of the present invention. The controlled release diffuser was prepared using cellulose sheets (0.2 cm thick) in pieces (2×1 cm) and impregnated with 50 μL of pure β-cyclocitral (β-CC). These sheets were inserted into polyethylene bags (3×3 cm) that were subsequently heat-sealed.
The diffuser was place in the middle of jar from 20 cm to the surface of the petals. The two jars were covered with a plastic bag to keep inside a homogeneous atmosphere. jars were kept in an acclimated chamber (20° C., darkness) until the symptoms of fungi degradation (approx. 7 days).

Monilinia sp. = assay: Compartment PDA plate, β-CC and eucalyptol on cellulose, mycelium growth inhibition; assay type: cell-based; conditions: 25 μl of the single substance, 27° C., 3-5 days
Experimental: (§4) The fungi grown on strawberries was isolated and cultured on potato dextrose agar (PDA, Condalab, Madrid Spain) The fungus was identified as Monilinia sp.
as §2, with “different volume” for “50 μL”, “invention) and Eucalyptol” for “invention)”

cherries = assay: In vivo test on cherries with controlled release diffuser; conditions: diffuser with 50 μl, 20° C., darkness, 6 days; control approximately 23%
Experimental: Mature cherries were brought directly from Spanish farm and sent to laboratory within 24 hours. The cherries were divided into two equal groups and each group of cherries was placed in a plate.
as §3, with “cherries” for “roses”, “μl” for “μL”
The diffuser was placed in the bottom of one plate. The two plates were covered with a plastic bag to keep inside a homogeneous atmosphere. Boxes were kept in an acclimated chamber (20° C., darkness) for 6 days.
Finally, the cherries (control and exposed to the composition) were separate into two groups: fruits able to consume (not sign of fungi) and fruits not able to consume (signs of fungi).

strawberries = assay: In vivo test on strawberries with controlled release diffuser; conditions: diffuser with 50 μL, 20° C., darkness, approx. 7 days, versus control; listed as composition of the present invention
Experimental: Mature strawberries were brought directly from local market and sent to laboratory within 2 hours. The strawberries were divided into two equal groups and each group of strawberries was placed in a box.
as §3, with “strawberries” for “roses”
The diffuser was place in the middle of one box from 10 cm to the surface of strawberries. The two boxes were covered with a plastic bag to keep inside a homogeneous atmosphere. Boxes were kept in an acclimated chamber (20° C., darkness) until the symptoms of fungi degradation (approx. 7 days).

Monilinia sp = assay: Vapor-agar contact method, colony diameter; assay type: cell-based
Experimental: as §4
Antifungal activity was determined by the vapor-agar contact method previously described by Sekiyama et al.. Fungi were cultured on potato dextrose agar (PDA) medium at 27° C. for a week. Fungal spores were then inoculated in the center of PDA plates which were aseptically placed in a chamber without lids.
A controlled release diffuser as described in examples 1 and 2 was used. In this example 3 doses of β-cyclocitral (β-CC) were used: 20, 50 and 100 μL.
The diffusers were introduced into the chambers, 6 cm far from the PDA plate, followed by proper sealing. Incubation in the chambers was performed at 27° C. for 3-5 days. The inhibitory activity was evaluated by measuring the diameter of colonies formed by the tested fungal strains. The minimum inhibitory dose (MID) was defined as the lowest concentration (mg/L in air) of volatile compounds which inhibited colony formation of test fungi by 50%.

CC1=C(C=O)C(C)(C)CCC1 [β-CC, beta-cyclocitral]
% Inhibition (Rhizopus sp.; 27° C., 3-5 days): 62.55% | Growth area (Rhizopus sp.; 27° C., 3-5 days): 1.45 cm^2 | effect on spore germination (FIG. 3) (Rhizopus sp.; versus control): inhibitory effect on the spore germination | % Inhibition (Taphrina deformans): 100% | Growth area (Taphrina deformans): 0 cm^2 | % Inhibition (Colletotrichum): 99.00% | Growth area (Colletotrichum): 6.15 cm^2 | growth inhibition (Phytophtera nicotiana): 100% | spots on roses (roses): less spots | % Inhibition (Monilinia sp.): 78.22% | cherries suitable for consumption (cherries): approximately 65% | rot / fungi contamination of strawberries (strawberries): less fungi contamination; also recorded: less rot | inhibition (Monilinia sp; concentrations higher than 50 μL): more than 60% | inhibition (Monilinia sp; concentrations of 100 μL): 80-100% | doses that inhibit 50% of mycelium fungi (MID) (Monilinia sp; from linear model y=1.01X+4.2047, doses 20, 50 and 100 μL, 27° C., 3-5 days): 45.34 µL
